Data: the NIST ThermoML archive (doi:10.1021/acs.jced.8b00176)
Numbers after ± are expanded uncertainties.

How the values were obtained:
[1] = xn = mol fraction of the nth substance listed; conditions: 100 kPa, Liquid; for viscosity: Falling or rolling sphere viscometry; for speed of sound: Frequency=3 MHz, Single path-length method; for mass density: Vibrating tube method
[2] = 100 kPa, Liquid; for viscosity: Falling or rolling sphere viscometry; for speed of sound: Frequency=3 MHz, Single path-length method; for mass density: Vibrating tube method

Row | Structure (SMILES) | viscosity ([2]; 298.15 K) [mPa·s] | speed of sound ([2]; 298.15 K) [m/s] | mass density ([2]; 298.15 K) [kg/m3] | viscosity ([2]; 303.15 K) [mPa·s] | speed of sound ([2]; 303.15 K) [m/s] | mass density ([2]; 303.15 K) [kg/m3] | viscosity ([2]; 308.15 K) [mPa·s] | speed of sound ([2]; 308.15 K) [m/s] | mass density ([2]; 308.15 K) [kg/m3] | viscosity ([2]; 313.15 K) [mPa·s] | speed of sound ([2]; 313.15 K) [m/s] | mass density ([2]; 313.15 K) [kg/m3] | viscosity ([2]; 318.15 K) [mPa·s] | speed of sound ([2]; 318.15 K) [m/s] | mass density ([2]; 318.15 K) [kg/m3] | viscosity ([2]; 323.15 K) [mPa·s] | speed of sound ([2]; 323.15 K) [m/s] | mass density ([2]; 323.15 K) [kg/m3] | viscosity ([1]; 298.15 K, x2 = 0) [mPa·s] | speed of sound ([1]; 298.15 K, x2 = 0) [m/s] | other results
1 | CN(C)C=O [dimethylformamide] + CC#N | – | – | – | – | – | – | – | – | – | – | – | – | – | – | – | – | – | – | – | – | viscosity ([1]; 298.15 K, x1 = 1): 0.81 ± 0.2 mPa·s; speed of sound ([1]; 298.15 K, x1 = 1): 1457.1 ± 2.2 m/s; mass density ([1]; 298.15 K, x1 = 1): 943.934 ± 2 kg/m3; viscosity ([1]; 303.15 K, x1 = 1): 0.77 ± 0.2 mPa·s; speed of sound ([1]; 303.15 K, x1 = 1): 1437.8 ± 2.2 m/s; mass density ([1]; 303.15 K, x1 = 1): 939.162 ± 2 kg/m3; viscosity ([1]; 308.15 K, x1 = 1): 0.72 ± 0.2 mPa·s; speed of sound ([1]; 308.15 K, x1 = 1): 1418.5 ± 2.2 m/s; mass density ([1]; 308.15 K, x1 = 1): 934.373 ± 2 kg/m3; viscosity ([1]; 313.15 K, x1 = 1): 0.69 ± 0.2 mPa·s; speed of sound ([1]; 313.15 K, x1 = 1): 1399.2 ± 2.2 m/s; mass density ([1]; 313.15 K, x1 = 1): 929.577 ± 2 kg/m3; viscosity ([1]; 318.15 K, x1 = 1): 0.65 ± 0.2 mPa·s; speed of sound ([1]; 318.15 K, x1 = 1): 1379.9 ± 2.2 m/s; mass density ([1]; 318.15 K, x1 = 1): 924.765 ± 2 kg/m3; viscosity ([1]; 323.15 K, x1 = 1): 0.62 ± 0.2 mPa·s; speed of sound ([1]; 323.15 K, x1 = 1): 1360.7 ± 2.2 m/s; mass density ([1]; 323.15 K, x1 = 1): 919.95 ± 2 kg/m3
2 | CCCCn1cc[n+](C)c1.O=S(=O)([O-])C(F)(F)F [1-butyl-3-methylimidazolium trifluoromethanesulfonate] | 82.38 ± 1.7 | 1393.2 ± 2.8 | 1297.46 ± 2.4 | 66.69 ± 1.2 | 1382.8 ± 2.8 | 1293.46 ± 2.4 | 52.86 ± 0.96 | 1371.7 ± 2.8 | 1289.47 ± 2.4 | 43.67 ± 0.96 | 1360.7 ± 2.8 | 1285.47 ± 2.4 | 36.29 ± 0.92 | 1349.9 ± 2.8 | 1281.47 ± 2.4 | 30.57 ± 0.88 | 1338.8 ± 2.8 | 1277.48 ± 2.4 | – | – | –
3 | CC#N [acetonitrile] | 0.34 | 1278.5 ± 2.2 | 776.714 ± 2 | 0.32 | 1258.4 ± 2.2 | 771.289 ± 2 | 0.31 | 1238.2 ± 2.2 | 765.833 ± 2 | 0.3 | 1218 ± 2.2 | 760.339 ± 2 | 0.29 | 1197.9 ± 2.2 | 754.815 ± 2 | 0.28 | 1177.8 ± 2.2 | 749.253 ± 2 | – | – | –
4 | CN(C)C=O [dimethylformamide] | 0.81 ± 0.2 | 1457.1 ± 2.2 | 943.934 ± 2 | 0.77 ± 0.2 | 1437.8 ± 2.2 | 939.162 ± 2 | 0.72 ± 0.2 | 1418.5 ± 2.2 | 934.373 ± 2 | 0.69 ± 0.2 | 1399.2 ± 2.2 | 929.577 ± 2 | 0.65 ± 0.2 | 1379.9 ± 2.2 | 924.765 ± 2 | 0.62 ± 0.2 | 1360.7 ± 2.2 | 919.95 ± 2 | – | – | –
5 | CN(C)C=O [dimethylformamide] + CCCCn1cc[n+](C)c1.O=S(=O)([O-])C(F)(F)F | – | – | – | – | – | – | – | – | – | – | – | – | – | – | – | – | – | – | 0.81 ± 0.2 | 1457.1 ± 2.2 | mass density ([1]; 298.15 K, x2 = 0): 943.934 ± 2 kg/m3; viscosity ([1]; 303.15 K, x2 = 0): 0.77 ± 0.2 mPa·s; speed of sound ([1]; 303.15 K, x2 = 0): 1437.8 ± 2.2 m/s; mass density ([1]; 303.15 K, x2 = 0): 939.162 ± 2 kg/m3; viscosity ([1]; 308.15 K, x2 = 0): 0.72 ± 0.2 mPa·s; speed of sound ([1]; 308.15 K, x2 = 0): 1418.5 ± 2.2 m/s; mass density ([1]; 308.15 K, x2 = 0): 934.373 ± 2 kg/m3; viscosity ([1]; 313.15 K, x2 = 0): 0.69 ± 0.2 mPa·s; speed of sound ([1]; 313.15 K, x2 = 0): 1399.2 ± 2.2 m/s; mass density ([1]; 313.15 K, x2 = 0): 929.577 ± 2 kg/m3; viscosity ([1]; 318.15 K, x2 = 0): 0.65 ± 0.2 mPa·s; speed of sound ([1]; 318.15 K, x2 = 0): 1379.9 ± 2.2 m/s; mass density ([1]; 318.15 K, x2 = 0): 924.765 ± 2 kg/m3; viscosity ([1]; 323.15 K, x2 = 0): 0.62 ± 0.2 mPa·s; speed of sound ([1]; 323.15 K, x2 = 0): 1360.7 ± 2.2 m/s; mass density ([1]; 323.15 K, x2 = 0): 919.95 ± 2 kg/m3
6 | CC#N [acetonitrile] + CCCCn1cc[n+](C)c1.O=S(=O)([O-])C(F)(F)F | – | – | – | – | – | – | – | – | – | – | – | – | – | – | – | – | – | – | 0.34 | 1278.5 ± 2.2 | mass density ([1]; 298.15 K, x2 = 0): 776.714 ± 2 kg/m3; viscosity ([1]; 303.15 K, x2 = 0): 0.32 mPa·s; speed of sound ([1]; 303.15 K, x2 = 0): 1258.4 ± 2.2 m/s; mass density ([1]; 303.15 K, x2 = 0): 771.289 ± 2 kg/m3; viscosity ([1]; 308.15 K, x2 = 0): 0.31 mPa·s; speed of sound ([1]; 308.15 K, x2 = 0): 1238.2 ± 2.2 m/s; mass density ([1]; 308.15 K, x2 = 0): 765.833 ± 2 kg/m3; viscosity ([1]; 313.15 K, x2 = 0): 0.3 mPa·s; speed of sound ([1]; 313.15 K, x2 = 0): 1218 ± 2.2 m/s; mass density ([1]; 313.15 K, x2 = 0): 760.339 ± 2 kg/m3; viscosity ([1]; 318.15 K, x2 = 0): 0.29 mPa·s; speed of sound ([1]; 318.15 K, x2 = 0): 1197.9 ± 2.2 m/s; mass density ([1]; 318.15 K, x2 = 0): 754.815 ± 2 kg/m3; viscosity ([1]; 323.15 K, x2 = 0): 0.28 mPa·s; speed of sound ([1]; 323.15 K, x2 = 0): 1177.8 ± 2.2 m/s; mass density ([1]; 323.15 K, x2 = 0): 749.253 ± 2 kg/m3
